System: MDA MB 231 cells
Experiment: In vivo study in mice, MDA MB 231 tumour growth
Parameters: species or system Athymic Nude female mice
Conditions: 25 mg/kg twice a day by oral gavage, 10 days
Description: The effect of Example 1 on tumor growth rate in mice was also investigated.
5×10^6 MDA MB 231 cells (obtained from Professor Eric Aboagye, Hammersmith Hospital; cell type: triple negative breast cancer) were resuspended in PBS, and 50 μl of cells/PBS was mixed with 50 μl of Matrigel to provide a total volume of 100 μL containing 50% Matrigel. The suspension was injected into the right flank in 16 Athymic Nude female mice. Mice were five to six weeks old and obtained from Charles Rivers Laboratories. All of the experiments were carried out under London Home Office license authority and London Home Office Ethics Committee guidelines. When the tumour mass reached 50 mm3, the animals were randomized (8 per group) and treated for 10 days with PBS solution (control group) or 25 mg/kg of Example 1 suspended in PBS twice a day by oral gavage. Tumor growth rates were analyzed by caliper measurements every day after the start of the treatment period with Example 1 (“NMTi”) or the control (“PBS”). Tumor volume was calculated according to the formula: […]. Weight of the mice was also measured every day after the start of the treatment period with Example 1 (“NMTi”) or the control (“PBS”). Mice were euthanised when the tumor size exceeded 15 mm in diameter in any direction.

weight change in the mice: No weight change
SMILES: Cc1c(CCOc2cc(Cl)ccc2-c2ccc3ncc(CCN)n3c2)c(C(=O)N(C)C)nn1C [Example Compound 1, 4-(2-{2-[3-(2-aminoethyl)imidazo[1,2-a]pyridin-6-yl]-5-chlorophenoxy}ethyl)-N,N,1,5-tetramethyl-1H-pyrazole-3-carboxamide]
tumour growth rate (vs PBS control): reduced
